Assay results published in patent publication US20230277569A1, “Compositions and Methods for Treating, Ameliorating and/or Preventing Cancer and Kits for the Same” (priority 2022, published 2023).
Values joined by “and” are separate entries in the source; they are usually repeats but may differ in a detail not shown here. Equal values may be shown once. Read-outs that look alike come from different tables or passages of the source.

What was measured:
CYP1A2 = CYP1A2 (Homo sapiens, UniProt P05177); test: CYP inhibition in liver microsomes, CYP1A2; assay type: in vitro ADME; details: human liver microsomes 0.1 mg/mL
Protocol: After addition of prototypical CYP substrates in 250 μL, samples were incubated for 10 min (CYP1A2, CYP2B6, CYP2C9, and CYP3A4) or 20 min (CYP2C8) at 37° C. in 5% CO2. […] Samples were analyzed for metabolite formation by LC-MS/MS. The results were expressed using the peak area ratio of analyte to internal standard, based on the calibration curves.
where Range=fitted uninhibited value, s=slope factor, x=inhibitor concentration, y=% control activity.

[1] = Gamitrinib pharmacokinetics (PK) in rat plasma, single IV dose; assay type: in vivo, Sprague-Dawley rats; details: for 17-AG plasma concentration after IV Gamitrinib: Gamitrinib 5 mg/kg IV
Protocol: Sprague-Dawley rats (n=3) were administered a single intravenous (IV) dose of 1 mL Gamitrinib (5 mg/kg) formulated as described above without added microfluidization. Blood samples were collected via lateral tail vein using K2EDTA as an anticoagulant at 0.083, 0.25, 0.5, 1, 2, 4 and 24 h post-dose, chilled on ice and centrifuged at 5000 rpm for 10 min. Aliquots (0.2 mL) of each plasma sample were stored frozen at −20° C. For analysis, 50 μL aliquots of study samples were mixed with 50 μL of ACN/H2O (50:50), extracted by protein precipitation using ACN containing the internal standard Gamitrinib-d15 (100 ng/mL), and aliquots of supernatant were mixed with deionized water for Gamitrinib determination. Batch samples under analysis included a calibration curve, a matrix blank (blank rat plasma), a reagent blank, a control zero (blank rat plasma spiked with internal standard), and duplicate QC samples at 3 concentration levels (low, medium, and high) in addition to the study samples. Within each batch, the study samples were bracketed by calibration standards or QC samples. The lowest calibration standard served to evaluate system suitability at the beginning of each batch. […] Overall, the concentration of Gamitrinib was measured in 21 rat plasma samples in 1 analytical batch using LC-MS/MS data acquisition on a Shimadzu Nexera LC system coupled with an AB Sciex Triple Quad 5500 mass spectrometer. Chromatograms were integrated using Analyst 1.6.2 software. A weighted (1/x^2, x=concentration) linear regression was used to generate the calibration curve for Gamitrinib. […] The mean, standard deviation, precision, accuracy, and assay variability were calculated using Microsoft Excel.

[2] = 5 mg/kg IV, individual animals Rat 1-3

CYP1A2, sequence (P05177 whole entry): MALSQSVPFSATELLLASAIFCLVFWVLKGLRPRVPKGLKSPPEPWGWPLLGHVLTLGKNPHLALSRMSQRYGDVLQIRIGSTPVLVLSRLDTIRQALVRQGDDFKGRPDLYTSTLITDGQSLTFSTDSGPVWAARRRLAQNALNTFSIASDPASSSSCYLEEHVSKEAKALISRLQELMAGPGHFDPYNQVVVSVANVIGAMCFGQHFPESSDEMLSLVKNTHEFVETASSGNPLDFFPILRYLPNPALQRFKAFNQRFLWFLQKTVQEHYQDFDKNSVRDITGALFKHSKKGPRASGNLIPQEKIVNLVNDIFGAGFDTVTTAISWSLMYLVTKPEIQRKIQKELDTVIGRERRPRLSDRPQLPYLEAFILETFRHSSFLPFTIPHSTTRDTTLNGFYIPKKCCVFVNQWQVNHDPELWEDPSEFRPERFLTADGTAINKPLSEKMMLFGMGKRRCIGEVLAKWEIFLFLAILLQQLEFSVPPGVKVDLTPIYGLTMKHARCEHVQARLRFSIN

Structure (SMILES): CO[C@H]1/C=C\C=C(/C)C(=O)NC2=CC(=O)C(NCCCCCC[P+](c3ccccc3)(c3ccccc3)c3ccccc3)=C(C[C@@H](C)C[C@H](OC)[C@H](O)[C@@H](C)/C=C(\C)[C@@H]1OC(N)=O)C2=O [Gamitrinib, 17-Demethoxy-17-((6-(triphenylphosphonio)hexyl)amino)geldanamycin]
- IC50 (CYP1A2): 32.9 µM
- t1/2 ([1]; 5 mg/kg IV, Sprague-Dawley rats, individual animals Rat 1-3): 11.107 h and 14.022 h
- t1/2 (terminal phase half-life) ([1]; 5 mg/kg IV, Sprague-Dawley rats, mean, n=3): 12.25 ± 1.55 h
- Gamitrinib plasma concentration ([1]; 5 mg/kg IV, 5 min, animals 1-3): 674.432 ng/mL and 622.199 ng/mL
- Gamitrinib plasma concentration ([1]; 5 mg/kg IV, 15 min, animals 1-3): 128.663 ng/mL and 180.951 ng/mL
- Gamitrinib plasma concentration ([1]; 5 mg/kg IV, 30 min, animals 1-3): 67.204 ng/mL and 106.381 ng/mL
- Gamitrinib plasma concentration ([1]; 5 mg/kg IV, 60 min, animals 1-3): 65.903 ng/mL and 55.991 ng/mL
- Gamitrinib plasma concentration ([1]; 5 mg/kg IV, 120 min, animals 1-3): 43.125 ng/mL and 29.914 ng/mL
- Gamitrinib plasma concentration ([1]; 5 mg/kg IV, 240 min, animals 1-3): 34.776 ng/mL and 28.905 ng/mL
- Gamitrinib plasma concentration ([1]; 5 mg/kg IV, 1440 min, animals 1-3): 10.511 ng/mL and 10.365 ng/mL
- AUCINF [1, 2]: 957.472 ng·h/mL and 918.784 ng·h/mL
- AUClast [1, 2]: 789.045 ng·h/mL and 709.112 ng·h/mL
- CL [1, 2]: 87.035 mL/min/kg and 90.700 mL/min/kg
- Cmax [1, 2]: 829.668 ng/mL and 1544.041 ng/mL
- MRT [1, 2]: 5.411 h and 5.524 h
- Vss [1, 2]: 60.052 L/kg and 78.131 L/kg
- Vz [1, 2]: 83.678 L/kg and 110.085 L/kg
- AUClast (AUC0-t) ([1]; 5 mg/kg IV, mean, n=3): 783.199 ng·h/mL
- CL (clearance) ([1]; 5 mg/kg IV, mean, n=3): 85.656 ± 5.856 mL/min/kg and 85.65 ± 5.85 mL/min/kg
- 17-AG plasma concentration after IV Gamitrinib ([1]; 30 min, animals 1-3): BLOQ
- 17-AG plasma concentration after IV Gamitrinib ([1]; 60 min, animals 1-3): BLOQ
- 17-AG plasma concentration after IV Gamitrinib ([1]; 120 min, animals 1-3): BLOQ
- 17-AG plasma concentration after IV Gamitrinib ([1]; 240 min, animals 1-3): BLOQ
- 17-AG plasma concentration after IV Gamitrinib ([1]; 1440 min, animals 1-3): BLOQ
- concentration at 5 min ([1]; Sprague-Dawley, rat, plasma, intravenous, 5 mg/kg, 5 mg/kg IV, 5 min, animals 1-3): 526 ng/mL
- concentration at 15 min ([1]; Sprague-Dawley, rat, plasma, intravenous, 5 mg/kg, 5 mg/kg IV, 15 min, animals 1-3): 212 ng/mL
- concentration at 30 min ([1]; Sprague-Dawley, rat, plasma, intravenous, 5 mg/kg, 5 mg/kg IV, 30 min, animals 1-3): 114 ng/mL
- concentration at 60 min ([1]; Sprague-Dawley, rat, plasma, intravenous, 5 mg/kg, 5 mg/kg IV, 60 min, animals 1-3): 71.4 ng/mL
- concentration at 120 min ([1]; Sprague-Dawley, rat, plasma, intravenous, 5 mg/kg, 5 mg/kg IV, 120 min, animals 1-3): 46.7 ng/mL
- concentration at 240 min ([1]; Sprague-Dawley, rat, plasma, intravenous, 5 mg/kg, 5 mg/kg IV, 240 min, animals 1-3): 36.8 ng/mL
- concentration at 1440 min ([1]; Sprague-Dawley, rat, plasma, intravenous, 5 mg/kg, 5 mg/kg IV, 1440 min, animals 1-3): 11.9 ng/mL
- half-life ([1]; Sprague-Dawley, rat, plasma, iv, 5 mg/kg, 5 mg/kg IV, Sprague-Dawley rats, individual animals Rat 1-3, read-out: t1/2 (converted)): 11.6 h
- half-life ([1]; Sprague-Dawley, rat, plasma, iv, 5 mg/kg, 5 mg/kg IV, Sprague-Dawley rats, mean, n=3, read-out: t1/2 (terminal phase half-life) (converted)): 12.2 ± 1.55 h
- AUC(0-inf) ([1]; Sprague-Dawley, rat, plasma, iv, 5 mg/kg, 5 mg/kg IV, individual animals Rat 1-3): 1050 ng·h/mL
- AUC(0-t) ([1]; Sprague-Dawley, rat, plasma, iv, 5 mg/kg, 5 mg/kg IV, individual animals Rat 1-3, read-out: AUClast): 851 ng·h/mL
- clearance ([1]; Sprague-Dawley, rat, plasma, iv, 5 mg/kg, 5 mg/kg IV, individual animals Rat 1-3, read-out: CL): 79.2 mL/min/kg
- Cmax ([1]; Sprague-Dawley, rat, plasma, iv, 5 mg/kg, 5 mg/kg IV, individual animals Rat 1-3, read-out: Cmax): 1150 ng/mL
- MRT ([1]; Sprague-Dawley, rat, plasma, iv, 5 mg/kg, 5 mg/kg IV, individual animals Rat 1-3, read-out: MRT): 5.54 h
- Vd ([1]; Sprague-Dawley, rat, plasma, iv, 5 mg/kg, 5 mg/kg IV, individual animals Rat 1-3, read-out: Vss): 58.2 L/kg
- Vd ([1]; Sprague-Dawley, rat, plasma, iv, 5 mg/kg, 5 mg/kg IV, individual animals Rat 1-3, read-out: Vz): 79.7 L/kg
- AUC(0-inf) ([1]; Sprague-Dawley, rat, plasma, iv, 5 mg/kg, 5 mg/kg IV, mean, n=3): 976 ng·h/mL
- AUC(0-t) ([1]; Sprague-Dawley, rat, plasma, iv, 5 mg/kg, 5 mg/kg IV, mean, n=3, read-out: AUClast (AUC0-t)): 783 ± 71.3 ng·h/mL
- clearance ([1]; Sprague-Dawley, rat, plasma, iv, 5 mg/kg, 5 mg/kg IV, mean, n=3, read-out: CL (clearance)): 85.6 ± 5.8 mL/min/kg
- Cmax ([1]; Sprague-Dawley, rat, plasma, iv, 5 mg/kg, 5 mg/kg IV, mean, n=3, read-out: Cmax): 1180 ng/mL
- MRT ([1]; Sprague-Dawley, rat, plasma, iv, 5 mg/kg, 5 mg/kg IV, mean, n=3, read-out: MRT): 5.49 h
- Vd ([1]; Sprague-Dawley, rat, plasma, iv, 5 mg/kg, 5 mg/kg IV, mean, n=3, read-out: Vss): 65.5 L/kg
- Vd ([1]; Sprague-Dawley, rat, plasma, iv, 5 mg/kg, 5 mg/kg IV, mean, n=3, read-out: Vz): 91.2 L/kg
- generation of 17-AG by Gamitrinib metabolism in rats ([1]; in words): did not generate detectable levels
